Consider 21 molecules from patent US20240199587A1, “HETEROCYCLIC COMPOUNDS” (Hoffmann-La Roche Inc., priority 2021, published 2024).

For the test, the target named is T1, MAGL (Homo sapiens, UniProt Q99685).
T1 sequence (Q99685 1-303): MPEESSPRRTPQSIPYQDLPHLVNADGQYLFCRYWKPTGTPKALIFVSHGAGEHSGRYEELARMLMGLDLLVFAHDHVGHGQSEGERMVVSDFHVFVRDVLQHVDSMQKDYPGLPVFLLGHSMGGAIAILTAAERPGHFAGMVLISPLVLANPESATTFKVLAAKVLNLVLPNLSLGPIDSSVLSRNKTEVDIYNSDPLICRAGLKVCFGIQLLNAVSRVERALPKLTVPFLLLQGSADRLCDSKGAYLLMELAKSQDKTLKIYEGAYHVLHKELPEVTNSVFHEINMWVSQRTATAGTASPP
Briefly: 2-AG assay (MAGL inhibitory activity, hydrolysis of 2-arachidonoylglycerol to arachidonic acid followed by mass spectrometry). It counts as biochemical. The conditions noted are these: 8 μM 2-arachidonoylglycerol, 15 min pre-incubation, 30 min incubation at RT, RapidFire MS readout. The essentials: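 Human MAGL ([…] final) pre-incubated 15 min at RT with compound in 50 mM TRIS, 1 mM EDTA, 0.01% Tween-20, 2.5% DMSO; 8 μM 2-AG then added for 30 min at RT. Acetonitrile quench with d8-arachidonic acid; arachidonic acid measured by RapidFire SPE–MS/MS, activity from arachidonic acid/d8 ratio.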
Molecule `O=C(N1CC(c2cn(C3(C(F)(F)F)COC3)nn2)C1)N1CC2(CC(n3cnc(C4CC4)n3)C2)C1` [Example 167, [6-(3-cyclopropyl-1,2,4-triazol-1-yl)-2-azaspiro[3.3]heptan-2-yl]-[3-[1-[3-(trifluoromethyl)oxetan-3-yl]triazol-4-yl]azetidin-1-yl]methanone] yielded a half-inhibitory concentration (IC50) of 0.0855 µM.

`CC(C)(C)c1nnc(-c2ccc(C(=O)N3CC4(CC(n5cnc(Cl)n5)C4)C3)cc2)o1` [Example 168, [4-(5-tert-butyl-1,3,4-oxadiazol-2-yl)phenyl]-[6-(3-chloro-1,2,4-triazol-1-yl)-2-azaspiro[3.3]heptan-2-yl]methanone] came in with an IC50 of 1.49 µM. This IC50 lies about 17-fold higher than the previous one.

In the case of `CC(C)(C)c1nnc(-c2ccc(C(=O)N3CC4(CC(n5ccc(C6CC6)n5)C4)C3)cc2)o1` [Example 169, [4-(5-tert-butyl-1,3,4-oxadiazol-2-yl)phenyl]-[6-(3-cyclopropylpyrazol-1-yl)-2-azaspiro[3.3]heptan-2-yl]methanone], the 50% inhibitory concentration (IC50) came out at 0.659 µM.

With `CC(C)(C)n1cc(-c2ccc(C(=O)N3CC4(CC(n5cnc(Cl)n5)C4)C3)cc2)cn1` [Example 170, [4-(1-tert-butylpyrazol-4-yl)phenyl]-[6-(3-chloro-1,2,4-triazol-1-yl)-2-azaspiro[3.3]heptan-2-yl]methanone], inhibition was half-maximal at 0.286 µM (IC50). Compared with the last molecule, the IC50 is about 2.3-fold lower.

Molecule `CC(C)(C)c1nc(-c2ccc(C(=O)N3CC4(CC(n5ccc(C6CC6)n5)C4)C3)cc2)no1` [Example 171, [4-(5-tert-butyl-1,2,4-oxadiazol-3-yl)phenyl]-[6-(3-cyclopropylpyrazol-1-yl)-2-azaspiro[3.3]heptan-2-yl]methanone] yielded a half-maximal inhibitory concentration (IC50) of 0.0964 µM.

With `CC(C)(C)c1nc(-c2ccc(C(=O)N3CC4(CC(n5cnc(Cl)n5)C4)C3)cc2)no1` [Example 172, [4-(5-tert-butyl-1,2,4-oxadiazol-3-yl)phenyl]-[6-(3-chloro-1,2,4-triazol-1-yl)-2-azaspiro[3.3]heptan-2-yl]methanone], the half-inhibitory concentration (IC50) was 0.17 µM.

`O=C(C1CC(COCC2(C(F)(F)F)CC2)C1)N1CC2(CC(n3cnc(C4CC4)n3)C2)C1` (stereo not drawn) [Example 173, [6-(3-cyclopropyl-1,2,4-triazol-1-yl)-2-azaspiro[3.3]heptan-2-yl]−[3-[[1-(trifluoromethyl)cyclopropyl]methoxymethyl]cyclobutyl]methanone] showed an IC50 of 0.546 µM. This IC50 lies about 3.2-fold higher than the previous one.

Molecule `Cc1cc(C(=O)N2CC3(CC(n4cnc(Cl)n4)C3)C2)cnc1OCC1(C(F)(F)F)CC1` [Example 174, [6-(3-chloro-1,2,4-triazol-1-yl)-2-azaspiro[3.3]heptan-2-yl]-[5-methyl-6-[[1-(trifluoromethyl)cyclopropyl]methoxy]-3-pyridyl]methanone] displayed a half-maximal inhibitory concentration (IC50) of 0.183 µM. Compared with the last molecule, the IC50 is about 3-fold lower.

In turn, `Cc1cc(C(=O)N2CC3(CC(n4cnc(Cl)n4)C3)C2)cnc1OC(C)(C)C(F)(F)F` [Example 175, [6-(3-chloro-1,2,4-triazol-1-yl)-2-azaspiro[3.3]heptan-2-yl]-[5-methyl-6-(2,2,2-trifluoro-1,1-dimethyl-ethoxy)-3-pyridyl]methanone] displayed an IC50 of 0.221 µM. This IC50 and that of the molecule before are within 1.5-fold of each other.

Consider `O=C(N1CC(OCc2ccc(C(F)(F)F)cc2)C1)N1CC2(CC(n3cnc(N4CCC4)n3)C2)C1` [Example 177, (6-(3-(azetidin-1-yl)-1H-1,2,4-triazol-1-yl)-2-azaspiro[3.3]heptan-2-yl)(3-((4-(trifluoromethyl)benzyl)oxy)azetidin-1-yl)methanone], for which the 50% inhibitory concentration (IC50) was 0.141 µM.

As to `CC(C)(C)c1nc(-c2ccc(C(=O)N3CC4(C3)CC(O)(c3cnc(C5CC5)o3)C4)cc2)no1` [Example 179, [4-(5-tert-butyl-1,2,4-oxadiazol-3-yl)phenyl]−[6-(2-cyclopropyloxazol-5-yl)-6-hydroxy-2-azaspiro[3.3]heptan-2-yl]methanone], the half-inhibitory concentration (IC50) came out at 1.03 µM.

`CC(C)(C)c1nc(-c2ccc(C(=O)N3CC4(CC(n5nccc5C5CC5)C4)C3)cc2)no1` [Example 180, [4-(5-tert-butyl-1,2,4-oxadiazol-3-yl)phenyl]-[6-(5-cyclopropylpyrazol-1-yl)-2-azaspiro[3.3]heptan-2-yl]methanone] registered a half-inhibitory concentration (IC50) of 4.69 µM.

For `CC(C)(C)n1cc(C2CN(C(=O)N3CC4(CC(n5cnc(C6CC6)n5)C4)C3)C2)cn1` [Example 181, [3-(1-tert-butylpyrazol-4-yl)azetidin-1-yl]−[6-(3-cyclopropyl-1,2,4-triazol-1-yl)-2-azaspiro[3.3]heptan-2-yl]methanone], the IC50 came out at 4.61 µM.

In turn, `Cc1cc(C2CN(C(=O)N3CC4(CC(n5cnc(C6CC6)n5)C4)C3)C2)ccc1OC(F)(F)F` [Example 182, [6-(3-cyclopropyl-1,2,4-triazol-1-yl)-2-azaspiro[3.3]heptan-2-yl]-[3-[3-methyl-4-(trifluoromethoxy)phenyl]azetidin-1-yl]methanone] came in with a 50% inhibitory concentration (IC50) of 2.58 µM.

`O=C(N1CC(Oc2ccc(C3CC3)cc2)C1)N1CC2(CC(n3cnc(C4CC4)n3)C2)C1` [Example 183, (6-(3-cyclopropyl-1H-1,2,4-triazol-1-yl)-2-azaspiro[3.3]heptan-2-yl)(3-(4-cyclopropylphenoxy)azetidin-1-yl)methanone] returned a concentration for half-maximal inhibition (IC50) of 0.0001 µM.

`O=C(N1CC2(CC(Cc3ccc(F)cc3F)C2)C1)N1CC2(CC(n3cnc(C4CCC4)n3)C2)C1` [Example 184, [6-(3-cyclobutyl-1,2,4-triazol-1-yl)-2-azaspiro[3.3]heptan-2-yl]-[6-[(2,4-difluorophenyl)methyl]-2-azaspiro[3.3]heptan-2-yl]methanone] gave an IC50 of 0.0001 µM.

`O=C(N1CC(Oc2nccc(C3CC3)c2Cl)C1)N1CC2(CC(n3cnc(C4CC4)n3)C2)C1` [Example 185, [3-[(3-chloro-4-cyclopropyl-2-pyridyl)oxy]azetidin-1-yl]-[6-(3-cyclopropyl-1,2,4-triazol-1-yl)-2-azaspiro[3.3]heptan-2-yl]methanone] returned an IC50 of 0.0001 µM.

As for `CCc1ncn(C2CC3(C2)CN(C(=O)N2CC4(CC(Cc5ccc(F)cc5F)C4)C2)C3)n1` [Example 186, [6-[(2,4-difluorophenyl)methyl]-2-azaspiro[3.3]heptan-2-yl]-[6-(3-ethyl-1,2,4-triazol-1-yl)-2-azaspiro[3.3]heptan-2-yl]methanone], the 50% inhibitory concentration (IC50) worked out at 0.0001 µM.

Take `O=C(N1CC(Oc2ccc(C(F)(F)F)c(C3CC3)c2)C1)N1CC2(CC(n3cnc(C4CC4)n3)C2)C1` [Example 187, [6-(3-cyclopropyl-1,2,4-triazol-1-yl)-2-azaspiro[3.3]heptan-2-yl]-[3-[3-cyclopropyl-4-(trifluoromethyl)phenoxy]azetidin-1-yl]methanone]: the IC50 was 0.0002 µM. Against the preceding molecule, the IC50 is about 2-fold higher.

`N#Cc1cc(C2CC2)ccc1OC1CN(C(=O)N2CC3(CC(n4cnc(C5CC5)n4)C3)C2)C1` [Example 188, 5-cyclopropyl-2-[1-[6-(3-cyclopropyl-1,2,4-triazol-1-yl)-2-azaspiro[3.3]heptane-2-carbonyl]azetidin-3-yl]oxy-benzonitrile] had an IC50 of 0.0002 µM.

The molecule `O=C(N1CC2(CC(n3cnc(C4CC4)n3)C2)C1)N1CC2(CN(Cc3ccc(C(F)(F)F)cc3F)C2)C1` [Example 189, [6-(3-cyclopropyl-1,2,4-triazol-1-yl)-2-azaspiro[3.3]heptan-2-yl]-[6-[[2-fluoro-4-(trifluoromethyl)phenyl]methyl]-2,6-diazaspiro[3.3]heptan-2-yl]methanone] registered an IC50 of 0.0002 µM.

As usually defined, the IC50 is the concentration that inhibits the measured activity by half. Low readings indicate greater potency, high ones weaker potency.
